Entries after “also recorded” stand apart in the source; their conditions may differ.
What was measured:
[1] = test system: mouse mammary carcinoma model; conditions: eight intraperitoneal injections, 25 mg/kg per injection, 12-hour interval; Muruganandham et al. 2005; cited from earlier work
[2] = test system: HIB-1B adipocytes; experiment: Secretion assay with brefeldin A in differentiated HIB-1B adipocytes (Western blot); type: cell-based, mouse; conditions: BFA 0.5 ug/ml, 12 hours, differentiated HIB-1B adipocytes (day 8)
Procedure: HIB-1B cells expressing Nampt-FLAG, Dhfr-FLAG, and Ppl-FLAG were differentiated to mature adipocytes (day 8) in 10-cm dishes, and their cell extracts were collected and immunoprecipitated as described above. Culture supernatant (˜8 ml) were collected and immunoprecipitated overnight at 4° C. with anti-FLAG antibody-conjugated beads, washed twice with PBS, and analyzed by Western Blot with rabbit polyclonal anti-FLAG antibody (Sigma, MO).
Brefeldin A (BFA), a potent inhibitor of the classical secretory pathway, was added to examine if Nampt-FLAG® is secreted through the ER-Golgi system. Fully differentiated HIB-1B adipocytes (day 8) were treated with BFA (0.5 ug/ml, Sigma, MO) for 12 hours, and cell extracts and culture supernatants were collected and analyzed as described above.

[3] = test system: Chinese hamster ovary (CHO) cells; experiment: Secretion assay with brefeldin A in transfected CHO cells (Western blot); type: cell-based; conditions: BFA-treated transfected CHO cells
Procedure: Cell extracts and culture supernatants were collected 48 hours after transfection, and subjected to immunoprecipitation with anti-FLAG® antibody-conjugated beads as described above, and analyzed by Western Blot with rabbit polyclonal anti-FLAG® antibody (Sigma, MO). Cells were also treated with BFA as described above.

[4] = test system: C57BL/6 mice; experiment: Blood glucose levels after intraperitoneal injection in fasted C57BL/6 mice; type: in vivo, mouse; conditions: for effect on blood glucose levels at lower dose: 50 mg/kg intraperitoneal, compared with 500 mg/kg; for blood glucose levels: 4-hr fast, 0-120 min after injection
Procedure: In this Example, five adult mice (C57BL/6; male; 3-4 months of age) were subjected to a 4-hr fast followed by intraperitoneal injection (500 mg/kg; 50 mg/kg) of nicotinamide, nicotinamide mononucleotide (NMN), or nicotinamide adenine dinucleotide (NAD). A control group of five fasted mice ([…]) were injected with PBS.
Blood glucose levels were measured from tail vein blood samples with an Accu-Chek glucometer (Roche Diagnostics) at 0, 15, 30, 60 and 120 min after injection.

[5] = test system: NIH3T3 cells; experiment: Total cellular NAD levels in NIH3T3 cells by HPLC; type: cell-based, mouse; conditions: addition of 5 mM nicotinamide to the medium (otherwise 33 μM)
Procedure: Total cellular levels of NAD was measured in the NIH3T3 cell lines overexpressing the untagged enzymes. High performance liquid chromatography was used to measure NAD (Neubert et al., Biochim. Biophys. Acta., (1964) 92, 610-612; Emanuelli et al., J. Chromatogr., (1996) B. 676, 13-18). Briefly, 5×10^5 cells were plated in 6 cm dishes and harvested 48 h later in 800 μl of ice-cold PBS. Cells were then spun down and lysed with 300 μl of 1M HClO4 on ice for 10 min. Lysates were cleared by centrifugating at 4° C. at 18,000 g for 5 minutes. Cleared lysates (240 μl) were neutralized by adding 80 μl of 3M K2CO3 and incubating on ice for 10 minutes. After centrifuging for 10 min, 100 μl of the supernatant were mixed with 400 μl of Buffer A and loaded onto the column. The HPLC was run at a flow rate of 1 ml/min with 100% Buffer A from 0 to 5 min, a linear gradient to 95% Buffer A and 5% Buffer B (100% methanol) from 5 to 6 min, 95% Buffer A and 5% Buffer B from 6 to 11 min, a linear gradient to 85% Buffer A and 15% Buffer B from 11 to 13 min, 85% Buffer A and 15% Buffer B from 13 to 23 min, and a linear gradient to 100% Buffer A from 23 to 24 min. NAD was eluted as a sharp peak at 22 min. The amount of NAD was quantitated based on the peak area compared to a standard curve.

[6] = test system: B6 mice; experiment: Toxicity of NMN dose in B6 mice; type: in vivo, mouse; conditions: NMN 500 mg/kg body weight
From the text: Therefore, it will be of great interest to examine whether NMN administration also alleviates the effects of Nampt haplodeficiency in HFD-fed Nampt^+/− mice and even improves the symptoms in HFD-fed Nampt^+/+ mice. […] NMN administration causes an acute increase in blood glucose within 2 hrs, probably due to the rapid release of calcium and eicosanoid in the liver (Broetto-Biazon et al., Eur. J. Pharmacol., (2004) 484, 291-301). Therefore, physiological tests will be conducted ˜14 hrs after NMN injection, as described in Example 18.

[7] = test system: Nampt^+/− mice; experiment: Intraperitoneal glucose tolerance test (IPGTT) after NMN administration in Nampt+/- mice; type: in vivo, mouse
Procedure: Intraperitoneal glucose tolerance tests (IPGTTs) were conducted with a does of 3 g dextrose/kg body weight on Nampt^+/− and Nampt^+/+ siblings. For the IPGTTs, after mice were injected with PBS or NMN (500 mg/kg body weight) and fasted for 12-14 hours, dextrose (3 g/kg body weight) was injected intraperitoneally, and blood glucose levels were measured at 0, 15, 30, 60, and 120 min after injection. Plasma was also collected at 0 and 30 min time points after glucose injection and submitted for insulin measurements to the Washington University RIA Core facility. For the ITTs, after female mice were fasted for 4 hours, human insulin (0.75 U/kg body weight) (Lilly) was injected intraperitoneally to these mice, and blood glucose levels were measured at 0, 15, 30, 45, and 60min after insulin injection.
If the NAD biosynthetic activity of Nampt is responsible for the phenotypes observed in Nampt^+/− mice, the administration of NMN, a product of the Nampt enzymatic reaction, should be able to correct their problems. To test this possibility, the same Nampt^+/− mice that were used for IPGTTs were injected with NMN at a dose of 500 mg/kg body weight intraperitoneally ˜14 hrs prior to IPGTTs. As a control, PBS was injected to the mice ˜14 hrs before conducting previous IPGTTs. […] Blood glucose levels were monitored with a glucometer at 0, 30, and 60 min time points after injection.

O=C(/C=C/c1cccnc1)NCCCCC1CCN(C(=O)c2ccccc2)CC1 [FK866]
inhibition of NAD biosynthesis in vivo [1]: effective to inhibit NAD biosynthesis
toxicity [1]: without any obvious toxicity

C[C@H]1CCC/C=C/[C@@H]2C[C@H](O)C[C@H]2[C@H](O)/C=C/C(=O)O1 [BFA, Brefeldin A]
eNampt levels in supernatant (extracellular Nampt secretion) [2]: not affected; also recorded: not inhibited
secretion of Prl-FLAG [2]: significantly inhibited
secretion of Prl-FLAG ([2]; listed as brefeldin A): inhibited
secretion of Prl-FLAG [3]: significantly inhibited
secretion of extracellular Nampt [3]: unaffected

NC(=O)c1ccc[n+]([C@@H]2O[C@H](COP(=O)([O-])OP(=O)(O)OC[C@H]3O[C@@H](n4cnc5c(N)ncnc54)[C@H](O)[C@@H]3O)[C@@H](O)[C@H]2O)c1 [NAD, Nicotinamide adenine dinucleotide]
effect on blood glucose levels at lower dose [4]: weaker
blood glucose levels ([4]; 500 mg/kg intraperitoneal): significantly increased
kinetics of glucose increase ([4]; 500 mg/kg intraperitoneal, comparison between compounds): much more pronounced and long-lasting effect

NC(=O)c1cccnc1 [nicotinamide, 3-pyridinecarboxamide]
total cellular NAD level [5]: did not increase NAD
effect on blood glucose levels at lower dose [4]: weaker
blood glucose levels ([4]; 500 mg/kg intraperitoneal): significantly increased

NC(=O)c1ccc[n+]([C@@H]2O[C@H](COP(=O)([O-])O)[C@@H](O)[C@H]2O)c1 [NMN, Nicotinamide mononucleotide]
toxicity [6]: not cause any obvious toxicity
effect on blood glucose levels at lower dose [4]: weaker
blood glucose levels ([4]; 500 mg/kg intraperitoneal): significantly increased
time within which the acute increase in blood glucose occurs after administration ([4]; NMN administration): ≤ 2 h
glucose tolerance in IPGTT ([7]; NMN 500 mg/kg intraperitoneally ~14 hrs prior to IPGTT, Nampt+/- mice compared to Nampt+/+): no longer showed impaired glucose tolerance; also recorded: corrected impaired glucose tolerance; also recorded: can correct
glucose-stimulated insulin secretion (plasma insulin) in IPGTT ([7]; NMN 500 mg/kg intraperitoneally ~14 hrs prior, 30 min after glucose injection, Nampt+/- mice): robust insulin secretion similar to that in Nampt^+/+ mice; also recorded: corrected

Source: patent publication US7737158B2, “Processes for regulating blood glucose in a mammal” (Washington University, priority 2005, dated 2010)
